Laboratory results reported in US20210087206A1, “MACROCYCLIC KINASE INHIBITORS AND THEIR USE” (TURNING POINT THERAPEUTICS, INC., priority 2017, published 2021).

Tests used:
Test in all cases: Cell proliferation assay (CellTiter-Glo)
Format in all cases: cell-based
BaF3 EML4-ALK = target: T1, BaF3 EML4-ALK (Homo sapiens, UniProt Q9UM73); details: anti-cell proliferation, 72 hours
T1 construct: The EML4-ALK gene (variant 1) was synthesized at GenScript and cloned into pCDH-CMV-MCS-EF1-Puro plasmid (System Biosciences, Inc); fused on or other part: EML4 N-terminal part (variant 1: exons 1-13, with the coiled-coil that oligomerises the fusion) fused to the intracellular part of ALK, which contains the kinase domain; Q9HC35 (Echinoderm microtubule-associated protein-like 4)
Description: Cloning and Ba/F3 or NIH3T3 Stable Cell Line Creation
The EML4-ALK gene (variant 1) was synthesized at GenScript and cloned into pCDH-CMV-MCS-EF1-Puro plasmid (System Biosciences, Inc). Ba/F3-EML4-ALK wild type were generated by transducing Ba/F3 cells with lentivirus containing EML4-ALK wide type. Stable cell lines were selected by puromycin treatment, followed by IL-3 withdrawal. Briefly, 5×10^6 Ba/F3 cells were transduced with lentivirus supernatant in the presence of 8 μg/mL protamine sulfate. The transduced cells were subsequently selected with 1 μg/mL puromycin in the presence of IL3-containing medium RPMI1640, plus 10% FBS. After 10-12 days of selection, the surviving cells were further selected for IL3 independent growth.
(§1) Cell Proliferation Assays:
(§2) Two thousand cells per well were seeded in 384 well white plate for 24 hrs, and then treated with compounds for 72 hours (37° C., 5% CO2). Cell proliferation was measured using CellTiter-Glo luciferase-based ATP detection assay (Promega) following the manufactures's protocol. IC50 determinations were performed using GraphPad Prism software (GraphPad, Inc., San Diego, Calif.).

KG-1 cell (OP2-FGFR1) = details: Homo sapiens, anti-cell proliferation, 72 hours
Description: (§3) Cell Lines and Cell Culture:
(§4) Colorectal cell line KM 12 (harboring endogenous TPM3-TRKA fusion gene) was obtained from NCI. Acute myelogenous cell line KG-1 (harboring endogenous OP2-FGFR1 fusion gene) were purchased from ATCC.
as §1, §2

KM12 (TPM3-TRKA) = details: Homo sapiens, anti-cell proliferation, 72 hours
Description: as §3, §4, §1, §2

T1 sequence (Q9UM73 whole entry, stated change not applied, the tested form may be a part): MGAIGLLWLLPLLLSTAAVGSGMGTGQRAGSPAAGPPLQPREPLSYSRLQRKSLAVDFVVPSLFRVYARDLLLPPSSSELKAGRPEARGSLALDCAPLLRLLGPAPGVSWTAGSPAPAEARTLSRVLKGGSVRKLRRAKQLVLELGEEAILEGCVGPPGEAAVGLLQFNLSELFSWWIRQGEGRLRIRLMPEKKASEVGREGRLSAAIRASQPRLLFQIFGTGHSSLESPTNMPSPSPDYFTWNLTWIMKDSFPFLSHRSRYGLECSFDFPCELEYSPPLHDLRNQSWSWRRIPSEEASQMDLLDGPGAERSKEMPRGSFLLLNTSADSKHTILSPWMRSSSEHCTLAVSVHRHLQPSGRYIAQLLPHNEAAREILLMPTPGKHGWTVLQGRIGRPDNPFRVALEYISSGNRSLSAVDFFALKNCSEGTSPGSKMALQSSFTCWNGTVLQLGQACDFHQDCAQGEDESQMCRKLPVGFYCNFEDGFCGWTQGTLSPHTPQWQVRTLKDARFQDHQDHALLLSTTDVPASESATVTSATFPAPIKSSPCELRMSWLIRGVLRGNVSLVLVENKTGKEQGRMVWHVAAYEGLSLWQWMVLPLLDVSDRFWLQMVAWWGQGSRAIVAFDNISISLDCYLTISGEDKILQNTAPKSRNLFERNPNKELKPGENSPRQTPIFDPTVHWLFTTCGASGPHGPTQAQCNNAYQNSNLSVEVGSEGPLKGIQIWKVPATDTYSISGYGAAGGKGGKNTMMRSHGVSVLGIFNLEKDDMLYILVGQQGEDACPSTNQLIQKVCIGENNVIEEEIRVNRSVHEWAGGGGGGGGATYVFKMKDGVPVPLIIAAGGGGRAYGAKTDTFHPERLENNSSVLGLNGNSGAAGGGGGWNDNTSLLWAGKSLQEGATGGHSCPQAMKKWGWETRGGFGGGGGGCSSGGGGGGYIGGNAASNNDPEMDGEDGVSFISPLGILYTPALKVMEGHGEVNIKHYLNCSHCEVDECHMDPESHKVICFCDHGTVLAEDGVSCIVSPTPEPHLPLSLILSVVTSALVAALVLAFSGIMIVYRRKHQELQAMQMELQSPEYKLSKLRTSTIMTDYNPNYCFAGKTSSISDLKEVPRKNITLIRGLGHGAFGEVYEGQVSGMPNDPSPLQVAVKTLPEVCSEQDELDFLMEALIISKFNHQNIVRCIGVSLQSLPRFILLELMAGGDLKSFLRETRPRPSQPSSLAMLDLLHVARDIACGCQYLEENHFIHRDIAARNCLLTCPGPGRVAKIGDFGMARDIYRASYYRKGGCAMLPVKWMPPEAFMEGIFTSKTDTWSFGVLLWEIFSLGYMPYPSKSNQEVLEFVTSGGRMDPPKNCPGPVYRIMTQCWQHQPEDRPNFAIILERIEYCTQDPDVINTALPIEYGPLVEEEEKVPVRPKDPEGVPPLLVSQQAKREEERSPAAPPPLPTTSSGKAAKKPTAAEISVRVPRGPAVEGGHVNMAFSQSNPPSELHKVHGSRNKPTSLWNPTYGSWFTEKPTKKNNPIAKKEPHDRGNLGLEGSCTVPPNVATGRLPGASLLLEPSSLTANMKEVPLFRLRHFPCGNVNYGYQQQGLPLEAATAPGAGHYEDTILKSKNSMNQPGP

Row | IC50 (BaF3 EML4-ALK) | Structure (SMILES) | IC50 (KG-1 cell (OP2-FGFR1)) | IC50 (KM12 (TPM3-TRKA))
1 | 104 nM | CC[C@@H]1COc2ncc(F)cc2CN2c3nc4c(cnn4cc3OC[C@H]2C)C(=O)N1 [Compound 24, (4R,13R)-13-ethyl-8-fluoro-4-methyl-3,4,13,14-tetrahydro-6H-18,1-(metheno)[1,4]oxazino[3,4-i]pyrazolo[4,3-f]pyrido[3,2-l] [1,4,8,10]oxatriazacyclotridecin-15(12H)-one] | 50 nM | 
2 | 1550 nM | C[C@H]1CNC(=O)c2cnn3cc4c(nc23)N(Cc2cc(F)cnc2O1)C(C)(C)CO4 [Compound 37, (12S)-8-fluoro-4,4,12-trimethyl-3,4,13,14-tetrahydro-6H-18,1-(metheno)[1,4]oxazino[3,4-i]-pyrazolo[4,3-f]pyrido[3,2-l] [1,4,8,10]oxatriazacyclotridecin-15(12H)-one] | 5000 nM | 
3 | 7240 nM | C[C@H]1CNC(=O)c2cnn3cc4c(nc23)N(Cc2cc(F)cnc2O1)[C@H](Cc1ccccc1)CO4 [Compound 38, (4R,12S)-4-benzyl-8-fluoro-12-methyl-3,4,13,14-tetrahydro-6H-18,1-(metheno)[1,4]oxazino[3,4-i]pyrazolo[4,3-f]pyrido[3,2-l] [1,4,8,10]oxatriazacyclotridecin-15(12H)-one] | 357 nM | 
4 | 1610 nM | C[C@@H]1COc2ncc(F)cc2CN2c3nc4c(cnn4cc3OC[C@H]2Cc2ccccc2)C(=O)N1 [Compound 39, (4R,13R)-4-benzyl-8-fluoro-13-methyl-3,4,13,14-tetrahydro-6H-18,1-(metheno)[1,4]oxazino[3,4-i]pyrazolo[4,3-f]pyrido[3,2-l] [1,4,8,10]oxatriazacyclotridecin-15(12H)-one] | 73.7 nM | 
5 |  | C[C@H]1CNC(=O)c2cnn3cc4c(nc23)N(Cc2cc(F)cnc2O1)C[C@H](O)CO4 [Compound 62, (4S,13S)-9-fluoro-4-hydroxy-13-methyl-4,5,14,15-tetrahydro-3H,7H-19,1-(metheno)[1,4]-oxazepino[3,4-i]pyrazolo[4,3-f]-pyrido[3,2-l][1,4,8,10]oxatria-cyclotridecin-16(13H)-one] | 681 nM | 94.8 nM
6 |  | C[C@@H]1COc2ncc(F)cc2CN2c3nc4c(cnn4cc3OC[C@H]2C#N)C(=O)N1 [Compound 66, (4R,13R)-8-fluoro-13-methyl-15-oxo-3,4,12,13,14,15-hexahydro-6H-18,1-(metheno)[1,4]oxazino[3,4-i]pyrazolo[4,3-f]pyrido[3,2-1][1,4,8,10]oxatriazacyclotridecine-4-carbonitrile] | 10000 nM | 463 nM
7 |  | C[C@@H]1COc2cn3ncc4c3nc2N1Cc1cc(F)cnc1OCC(O)(O)CNC4=O [Compound 81, (16R)-12-fluoro-7,7-dihydroxy-16-methyl-5,6,7,8,16,17-hexahydro-4H,14H-1,19-(metheno)[1,4]oxazino[4,3-e]pyrazolo[3,4-h]pyrido[2,3-b][1,5,7,11]oxatriazacyclotetradecin-4-one] | 166 nM | < 0.2 nM
8 |  | C[C@H]1CNC(=O)c2cnn3cc4c(nc23)N(Cc2cc(F)cnc2O1)C[C@@H](O)CO4 [Compound 90, (4R,13S)-9-fluoro-4-hydroxy-13-methyl-4,5,14,15-tetrahydro-3H,7H-19,1-(metheno)[1,4]-oxazepino[3,4-i]pyrazolo[4,3-f]pyrido[3,2-l][1,4,8,10]oxatriaza-cyclotridecin-16(13H)-one] | 359 nM | < 0.2 nM
9 |  | C[C@@H]1COc2ncc(F)cc2CN2C[C@@H](F)COc3cn4ncc(c4nc32)C(=O)N1 [Compound 94, (4R,14R)-4,9-difluoro-14-methyl-4,5,14,15-tetrahydro-3H,7H-19,1-(metheno)[1,4]oxazepino[3,4-i]pyrazolo[4,3-f]pyrido[3,2-l] [1,4,8,10]oxatriazacyclotridecin-16(13H)-one] | 6110 nM | 40.3 nM
